These results are taken from PMC5834442, “Identifying inhibitors of the Leishmania inositol phosphorylceramide synthase with antiprotozoal activity using a yeast-based assay and ultra-high throughput screening platform” (Scientific Reports, 2018).

The structures appear in SMILES notation.

The test system of one assay is HepG2 cells. As to the kind of experiment: Mammalian cell cytotoxicity assay (CellTiter-Glo). The assay is classed as cell-based, human. As to conditions: Homo sapiens; -logIC50 mol against HepG2; read-out: PIC50 HepG2 (converted). (In general: ATP-based viability assays read luminescence as a measure of living cells.)
For `Cc1cccc2sc(N(Cc3cccnc3)C(=O)C3CCCCC3)nc12` [ST/712281], the IC50 is 85.1 µM.

With `Clc1cccc(Nc2nc(-c3ccncc3)cs2)c1` [ST/755059], the IC50 was 32.4 µM.

`O=C(Nc1ccccc1Cl)C(=Cc1cccc(F)c1)C(=O)Nc1ccccc1Cl` [ST/786453]: the IC50 was 6.76 µM.

Consider `N#Cc1ccc(C=C(C(=O)Nc2ccccc2Cl)C(=O)Nc2ccccc2Cl)cc1` [ST/786454], for which the IC50 was 3.63 µM.

Regarding `CCCc1cc(=O)[nH]c(Nc2cc(Cl)cc(Cl)c2)n1` [ST/826453], the IC50 was 14.1 µM.

On to `Clc1ccc(Cn2nnc(-c3ccc(CN4CCOCC4)cc3)n2)cc1` [ST/852088], for which the IC50 is > 100 µM.

Take `COc1cc([N+](=O)[O-])ccc1NC(=O)Nc1ccc(OC(F)(F)F)cc1` [ST/871026]: the IC50 was 13.2 µM.

In the case of `Cc1ccc(NC(=O)Nc2ccc(Cl)c([N+](=O)[O-])c2)cc1` [ST/875327], the IC50 is 22.9 µM.

As for `O=C(Nc1nnc(-c2ccccc2)o1)c1ccc2c(c1)CCCC2` [ST/912241], the IC50 was > 100 µM.

Consider `CC1(C)CCC(=Cc2ccc(Cl)cc2)CC1(O)Cn1ccnc1` (stereo not shown) [ST/1098001], for which the IC50 was 46.8 µM.

Regarding `COC1(C)CCC(=Cc2ccc(Cl)cc2)CC1(O)Cn1ccnc1` (stereo not shown) [ST/1099846], the IC50 was 72.4 µM.

Take `O=C(Nc1ccc2scnc2c1)c1ccc(Cl)s1` [ST/1127597]: the IC50 is 97.7 µM.

On to `Cc1ccccc1C(=O)N(Cc1cccnc1)c1nc2c(F)cccc2s1` [ST/1131244], for which the IC50 was 52.5 µM.

As for `O=C(Nc1cc(-c2nc3ccccc3[nH]2)ccc1Cl)c1ccc(Cl)c([N+](=O)[O-])c1` [ST/1193938], the IC50 is 22.9 µM.

For `N#Cc1nc(-c2ccccc2)oc1S(=O)(=O)c1ccc(Br)cc1` [ST/1197083], the IC50 is 60.3 µM.

With `O=C(Nc1ccc(Cl)c(Cl)c1)Nc1ccc(F)c([N+](=O)[O-])c1` [ST/1276812], the IC50 was 10 µM.

As to `O=C(Nc1ccc2ncsc2c1)c1ccc(Br)s1` [ST/1280764], the IC50 is > 100 µM.

With `COc1ccccc1-c1nn(-c2c(C)cccc2C)c2[nH]c(=O)cc(C(F)(F)F)c12` [ST/1471361], the IC50 was > 100 µM.

Consider `OCc1ccn2nc(-c3ccc(F)cc3)c(-c3ccncc3)c2c1` [U11871/14/3], for which the IC50 was > 100 µM.

`O=[N+]([O-])c1ccc(NS(=O)(=O)c2ccccc2)c(-c2ccccc2)c1` [VDPP/14/72/1]: the IC50 is 35.5 µM.

Staying with this assay, now noted: selectivity, pIC50 axenic minus pIC50 HepG2.
`CCCc1cc(=O)[nH]c(Nc2cc(Cl)cc(Cl)c2)n1` [ST/826453]: the “pSI v HepG2” value was determined as 0.20.

Take `Clc1ccc(Cn2nnc(-c3ccc(CN4CCOCC4)cc3)n2)cc1` [ST/852088]: the “pSI v HepG2” value came to 1.49.

Consider `COc1cc([N+](=O)[O-])ccc1NC(=O)Nc1ccc(OC(F)(F)F)cc1` [ST/871026], for which the “pSI v HepG2” value is reported as 0.28.

In the case of `Cc1ccc(NC(=O)Nc2ccc(Cl)c([N+](=O)[O-])c2)cc1` [ST/875327], the “pSI v HepG2” value turned out to be 0.38.

For `O=C(Nc1nnc(-c2ccccc2)o1)c1ccc2c(c1)CCCC2` [ST/912241], the “pSI v HepG2” value is listed as 1.91.

With `OCc1ccn2nc(-c3ccc(F)cc3)c(-c3ccncc3)c2c1` [U11871/14/3], the “pSI v HepG2” value is 1.72.

In the case of `O=[N+]([O-])c1ccc(NS(=O)(=O)c2ccccc2)c(-c2ccccc2)c1` [VDPP/14/72/1], the “pSI v HepG2” value was 0.85.

The assay is the same for the next values; noted with them: selectivity: pIC50 axenic minus pIC50 HepG2.
On to `Cc1cccc2sc(N(Cc3cccnc3)C(=O)C3CCCCC3)nc12` [ST/712281], for which the “pSI v HepG2” value came out at 1.43.

As to `Clc1cccc(Nc2nc(-c3ccncc3)cs2)c1` [ST/755059], the “pSI v HepG2” value was 0.68.

Consider `O=C(Nc1ccccc1Cl)C(=Cc1cccc(F)c1)C(=O)Nc1ccccc1Cl` [ST/786453], for which the “pSI v HepG2” value was 1.52.

For the compound `N#Cc1ccc(C=C(C(=O)Nc2ccccc2Cl)C(=O)Nc2ccccc2Cl)cc1` [ST/786454], the “pSI v HepG2” value is listed as 1.69.

As to `CC1(C)CCC(=Cc2ccc(Cl)cc2)CC1(O)Cn1ccnc1` (stereo not shown) [ST/1098001], the “pSI v HepG2” value turned out to be 0.93.

In the case of `COC1(C)CCC(=Cc2ccc(Cl)cc2)CC1(O)Cn1ccnc1` (stereo not shown) [ST/1099846], the “pSI v HepG2” value was 1.39.

Turning to `O=C(Nc1ccc2scnc2c1)c1ccc(Cl)s1` [ST/1127597], the “pSI v HepG2” value was 1.18.

On to `Cc1ccccc1C(=O)N(Cc1cccnc1)c1nc2c(F)cccc2s1` [ST/1131244], for which the “pSI v HepG2” value worked out at 0.81.

As for `O=C(Nc1cc(-c2nc3ccccc3[nH]2)ccc1Cl)c1ccc(Cl)c([N+](=O)[O-])c1` [ST/1193938], the “pSI v HepG2” value came out at 0.42.

As to `N#Cc1nc(-c2ccccc2)oc1S(=O)(=O)c1ccc(Br)cc1` [ST/1197083], the “pSI v HepG2” value turned out to be 2.22.

Consider `O=C(Nc1ccc(Cl)c(Cl)c1)Nc1ccc(F)c([N+](=O)[O-])c1` [ST/1276812], for which the “pSI v HepG2” value is 0.45.

Regarding `O=C(Nc1ccc2ncsc2c1)c1ccc(Br)s1` [ST/1280764], the “pSI v HepG2” value came to 1.16.

For the compound `COc1ccccc1-c1nn(-c2c(C)cccc2C)c2[nH]c(=O)cc(C(F)(F)F)c12` [ST/1471361], the “pSI v HepG2” value was determined as 1.10.

The next assay deals with THP-1 macrophages. In words: Host cell toxicity in the intramacrophage assay. The assay is classed as cell-based, human. Particulars: Homo sapiens; THP-1 host cells in intramacrophage assay; read-out: pIC50 THP-1 (converted).
With `COC1(C)CCC(=Cc2ccc(Cl)cc2)CC1(O)Cn1ccnc1` (stereo not shown) [ST/1099846], the IC50 was > 50.1 µM.

The test system of a further assay is L. donovani (MHOM/SD/62/1S-CL2D, LdBOB) axenic amastigotes. As to the kind of experiment: Leishmania donovani axenic amastigote dose response assay (resazurin). The assay is classed as cell-based. As to conditions: -logIC50 mol against L. donovani (LdBOB) axenic amastigotes, read-out: pIC50 Axenic (converted).
As to `Cc1cccc2sc(N(Cc3cccnc3)C(=O)C3CCCCC3)nc12` [ST/712281], the IC50 was 3.16 µM.

Take `Clc1cccc(Nc2nc(-c3ccncc3)cs2)c1` [ST/755059]: the IC50 was 6.76 µM.

Turning to `O=C(Nc1ccccc1Cl)C(=Cc1cccc(F)c1)C(=O)Nc1ccccc1Cl` [ST/786453], the IC50 was 0.204 µM.

For `N#Cc1ccc(C=C(C(=O)Nc2ccccc2Cl)C(=O)Nc2ccccc2Cl)cc1` [ST/786454], the IC50 was 0.0741 µM.

For the compound `CCCc1cc(=O)[nH]c(Nc2cc(Cl)cc(Cl)c2)n1` [ST/826453], the IC50 was 8.91 µM.

As for `Clc1ccc(Cn2nnc(-c3ccc(CN4CCOCC4)cc3)n2)cc1` [ST/852088], the IC50 is 3.24 µM.

As to `COc1cc([N+](=O)[O-])ccc1NC(=O)Nc1ccc(OC(F)(F)F)cc1` [ST/871026], the IC50 was 6.92 µM.

As to `Cc1ccc(NC(=O)Nc2ccc(Cl)c([N+](=O)[O-])c2)cc1` [ST/875327], the IC50 was 9.55 µM.

`O=C(Nc1nnc(-c2ccccc2)o1)c1ccc2c(c1)CCCC2` [ST/912241]: the IC50 is 1.23 µM.

With `CC1(C)CCC(=Cc2ccc(Cl)cc2)CC1(O)Cn1ccnc1` (stereo not shown) [ST/1098001], the IC50 was 5.5 µM.

`COC1(C)CCC(=Cc2ccc(Cl)cc2)CC1(O)Cn1ccnc1` (stereo not shown) [ST/1099846]: the IC50 was 2.95 µM.

Turning to `O=C(Nc1ccc2scnc2c1)c1ccc(Cl)s1` [ST/1127597], the IC50 is 6.46 µM.

Regarding `Cc1ccccc1C(=O)N(Cc1cccnc1)c1nc2c(F)cccc2s1` [ST/1131244], the IC50 is 8.13 µM.

In the case of `O=C(Nc1cc(-c2nc3ccccc3[nH]2)ccc1Cl)c1ccc(Cl)c([N+](=O)[O-])c1` [ST/1193938], the IC50 is 8.71 µM.

For the compound `N#Cc1nc(-c2ccccc2)oc1S(=O)(=O)c1ccc(Br)cc1` [ST/1197083], the IC50 is 0.363 µM.

For `O=C(Nc1ccc(Cl)c(Cl)c1)Nc1ccc(F)c([N+](=O)[O-])c1` [ST/1276812], the IC50 was 3.55 µM.

With `O=C(Nc1ccc2ncsc2c1)c1ccc(Br)s1` [ST/1280764], the IC50 was 6.92 µM.

In the case of `COc1ccccc1-c1nn(-c2c(C)cccc2C)c2[nH]c(=O)cc(C(F)(F)F)c12` [ST/1471361], the IC50 was 7.94 µM.

Turning to `OCc1ccn2nc(-c3ccc(F)cc3)c(-c3ccncc3)c2c1` [U11871/14/3], the IC50 was 1.91 µM.

As for `O=[N+]([O-])c1ccc(NS(=O)(=O)c2ccccc2)c(-c2ccccc2)c1` [VDPP/14/72/1], the IC50 was 5.01 µM.
